Patent US20230142981A1, “METHOD FOR IDENTIFING A MARKER FOR A BIOLOGICAL INTERACTION” (ARPEGGIO BIOSCIENCES, INC., priority 2020, published 2023)

Assays:
[1] = system: lung fibroblast cell line IMR90; test: nascent RNA sequencing of IMR90 cells exposed to GPX4 inhibitors; format: cell-based; conditions: IMR90, 1 μM, 1 hour, Pval 10^−3
Method: (§1) To assess the transcriptional response of a cell to inhibition of GPX4, we exposed two cell lines to two different chemical inhibitors of GPX4 (ML162 and RSL3; available from Sigma Aldrich and Apex Bio respectively) and examined the transcriptional responses using a nascent RNA sequencing protocol. Briefly, a fibrosarcoma cell line HT-1080 and a lung fibroblast cell line IMR90 were exposed to 1 μM ML162 or 1 μM RSL3 for 1 hour and the nascent RNA sequencing protocol was performed.

[2] = system: fibrosarcoma cell line HT-1080; test: nascent RNA sequencing of HT-1080 cells exposed to GPX4 inhibitors; format: cell-based; conditions: 1 hour; for number of genes with significant changes in gene transcription: 1 μM, HT-1080 compared with IMR90; for HMOX1 differential expression (nascent RNA sequencing): HT-1080, 1 μM, Pval<10^−2
Method: as §1

HMOX1 [3] = test: RT-qPCR assay of HMOX1 expression in HT-1080 cells; format: cell-based; conditions: for relative expression of HMOX1 in the absence of ferrostatin-1: HT-1080, 1 μM, four hours; for effect of ferrostatin-1 on induction of HMOX1: HT-1080, sodium arsenite 80 μM, hemin 5 μM, RSL3 1 μM, with or without 1 μM ferrostatin-1, four hours, normalized to DMSO control
Method: (§2) To confirm HMOX1 induction by the GPX4 inhibitors, an RT-qPCR assay was performed using three ferroptosis sensitive cancer cell lines: the fibrosarcoma cell line HT-1080, a Ewing's sarcoma cell line A673, and a renal clear cell carcinoma cell line 786-O. Briefly, cells were exposed to 1 μM ML162 or 1 μM RSL3 for 4 hours, RNA was isolated and an RT-qPCR assay was performed.
To further validate induction of HMOX1 mRNA expression by GPX4 inhibition, RT-qPCR was performed using varying doses of the RSL3 inhibitor. Briefly, HT-1080 cells were exposed to 5 μM RSL3, 1 μM RSL3, and 0.2 μM RSL3 for four hours, RNA was isolated and an RT-qPCR assay was performed to quantify HMOX1 expression. DMSO was used as a control exposure.
(§3) Briefly, HT-1080, A673, and 786-O cells were exposed to 1 μM ML162 or 1 μM RLS3 with or without 1 μM ferrostatin-1 for four hours, RNA was isolated and an RT-qPCR assay was performed to quantify HMOX1 expression. DMSO was used as a control exposure.
Sodium arsenite and hemin are known to be inducers of general oxidative stress in cells. Briefly, HT-1080 cells were exposed to sodium arsenite (80 μM), hemin (5 μM), ML162 (1 μM), or RSL3 (1 μM) with or without 1 μM ferrostatin-1 for four hours, RNA was isolated and an RT-qPCR assay was performed to quantify HMOX1 expression. DMSO was used as a control exposure.

HMOX1 [4] = test: RT-qPCR assay of HMOX1 expression in A673 cells; format: cell-based; conditions: A673, 1 μM; for relative expression of HMOX1 in the absence of ferrostatin-1: four hours, relative to ACTB
Method: as §2, §3

HMOX1 [5] = test: RT-qPCR assay of HMOX1 expression in 786-O cells; format: cell-based; conditions: 1 μM; for relative expression of HMOX1 in the absence of ferrostatin-1: four hours, relative to ACTB
Method: as §2, §3

[6] = system: breast cancer cell line (MCF7); test: steady state RNA-seq of MCF7 cells after estradiol treatment; format: cell-based; conditions: MCF7, 100 nM estradiol, 15 minutes, pval 10^−3
Method: (§4) To assess the sensitivity and dynamic range of the nascent RNA sequencing assay in gauging a cellular response to a stimulus, the performance of a steady state RNA-seq protocol was compared against a nascent RNA sequencing protocol using a breast cancer cell line (MCF7) model and estrogen treatment to elicit a well characterized, widespread transcriptional response driven by ERα and ERβ transcription factors. Briefly, cell cultures were treated with 100 nM estradiol for 15 minutes or left untreated (i.e., untreated controls) and a steady state RNA-seq protocol or the nascent RNA sequencing assay described herein above was performed.

[7] = system: breast cancer cell line (MCF7); test: nascent RNA sequencing (SNAP-seq) of MCF7 cells after estradiol treatment; format: cell-based; conditions: MCF7, 100 nM estradiol, 15 minutes, significance threshold pval 10^−3
Method: as §4

786-O = conditions: cells treated with small molecules that induce lipid peroxidation; cited from earlier work
A673 = conditions: A673, cells treated with small molecules that induce lipid peroxidation; cited from earlier work
HT-1080 = conditions: HT-1080, cells treated with small molecules that induce lipid peroxidation; cited from earlier work
[8] = 4 hours, normalized to DMSO control, n=2

Molecule	HMOX1 differential expression (nascent RNA sequencing) [1]	number of genes with significant changes in gene transcription [2]	HMOX1 differential expression (nascent RNA sequencing) [2]	relative expression of HMOX1 in the absence of ferrostatin-1 (HMOX1 [3]; relative to ACTB)	relative expression of HMOX1 in the absence of ferrostatin-1 (HMOX1 [4])	relative expression of HMOX1 in the absence of ferrostatin-1 (HMOX1 [5])	effect of ferrostatin-1 on induction of HMOX1 (HMOX1 [3])	other results
COc1ccc(N(C(=O)CCl)C(C(=O)NCCc2ccccc2)c2cccs2)cc1Cl (stereo not drawn) [ML162]	strongly differentially expressed	greater in the HT-1080 cell line relative to the IMR90 cell line	strongly differentially expressed	HMOX1 expression was observed	HMOX1 expression was observed	HMOX1 expression was observed	–	fold induction for HMOX1 mRNA (HMOX1 [3]; 1 µM): induced; relative expression of HMOX1 in the presence of ferrostatin-1 (HMOX1 [3]; HT-1080, 1 μM with 1 μM ferrostatin-1, four hours, relative to ACTB): induced HMOX1 even in the presence of ferrostatin-1; fold induction for HMOX1 mRNA (HMOX1 [4]; [8]): induced; fold induction for HMOX1 mRNA (HMOX1 [5]; [8]): induced
COC(=O)c1ccc([C@@H]2c3[nH]c4ccccc4c3C[C@@H](C(=O)OC)N2C(=O)CCl)cc1 [RSL3]	strongly differentially expressed	greater in the HT-1080 cell line relative to the IMR90 cell line	strongly differentially expressed	HMOX1 expression was observed	HMOX1 expression was observed	HMOX1 expression was observed	dependent on lipid peroxidation	–
C[C@]12CC[C@@H]3c4ccc(O)cc4CC[C@H]3[C@@H]1CC[C@@H]2O [estradiol]	–	–	–	–	–	–	–	number of differentially expressed genes (estradiol/untreated), steady-state RNA-seq [6]: 8; number of differentially expressed genes (estradiol/untreated), nascent RNA sequencing (SNAP-seq) [7]: 762
CCOC(=O)c1ccc(NC2CCCCC2)c(N)c1 [ferrostatin-1]	–	–	–	–	–	–	–	rescue of cellular viability (ferroptosis-protective effect) (786-O): ferroptosis-protective effect has been observed; rescue of cellular viability (ferroptosis-protective effect) (A673): ferroptosis-protective effect has been observed; rescue of cellular viability (ferroptosis-protective effect) (HT-1080): ferroptosis-protective effect has been observed
O=[As]O [sodium arsenite]	–	–	–	–	–	–	not affected by the presence of ferrostatin-1	–
hemin	–	–	–	–	–	–	not affected by the presence of ferrostatin-1	–
